Results taken from ChEMBL document CHEMBL5608141, “Identification of compartment-specific drug sensitivities in CRC organoid-stroma co-cultures” (2024).

How the values were obtained:
Format in all cases: functional, Homo sapiens
Parameters in all cases: dose or concentration left out as unconfirmed
Colon cancer organoid [1] = test: Identification of compartment-specific drug sensitivities in O06 CRC organoid-stroma F06 CAF co-cultures. Organoid is transduced with Lucferase2-P2A-EGFP lentivirus, fibroblast with Renilla-dsRed lentivirus. Dual-Glo Luciferase assay is used to report viability data.
Colon cancer organoid [2] = test: Identification of compartment-specific drug sensitivities in O14 CRC organoid-stroma F14 CAF co-cultures. Organoid is transduced with Lucferase2-P2A-EGFP lentivirus, fibroblast with Renilla-dsRed lentivirus. Dual-Glo Luciferase assay is used to report viability data.
Colon cancer organoid [3] = test: Identification of compartment-specific drug sensitivities in O20 CRC organoid-stroma F20 CAF co-cultures. Organoid is transduced with Lucferase2-P2A-EGFP lentivirus, fibroblast with Renilla-dsRed lentivirus. Dual-Glo Luciferase assay is used to report viability data.
[4] = Transduced with Lucferase2-P2A-EGFP lentivirus
[5] = Transduced with Renilla-dsRed lentivirus

SMILES	Cell Viability (Colon cancer organoid [1]; [4]) [%]	Cell Viability (Colon cancer organoid [1]; [5]) [%]	Cell Viability (Colon cancer organoid [2]; [4]) [%]	Cell Viability (Colon cancer organoid [2]; [5]) [%]	Cell Viability (Colon cancer organoid [3]; [4]) [%]	Cell Viability (Colon cancer organoid [3]; [5]) [%]
CO[C@H]1CNC[C@@H](OCC2CCC(F)(F)CC2)[C@@H]1Nc1ncc(-c2cncc(C)c2)c2cc(C)c(=O)[nH]c12	95.0954	138.476	145.9	102.552	171.771	122.949
Cc1cn(-c2cc(NC(=O)c3ccc4c(c3)CN(c3cncnc3)C[C@@H]4C)cc(C(F)(F)F)c2)cn1	82.9908	122.253	141.09	97.6954	88.3808	107.854
CCCCN(CCCC)C(=O)CN1C[C@@H](c2cc(OC)c3c(c2)OCO3)[C@H](C(=O)O)[C@H]1CC(C)(C)CCC [A-545]	84.2855	55.5874	148.86	126.562	123.099	97.2502
CC(C)NC(=O)N1CC[C@H](NC2=Nc3cc(F)ccc3N(CC(F)F)c3ccc(Cl)cc32)C1	50.3719	97.5535	92.2307	99.3787	55.1322	142.836
N#CC1(c2ccccn2)CCN(Cc2cc(C(=O)N3CCCC3)c(=O)n3ccccc23)CC1 [MSD-M1PAM-NC]	85.4848	72.6928	93.1425	88.6945	103.159	109.338
Cc1ncsc1-c1ccc(CNC(=O)[C@@H]2C[C@@H](O)CN2C(=O)[C@@H](NC(=O)CCCCNC(=O)c2ccc(-c3ccc(N4CCN(C)CC4)c(NC(=O)c4c[nH]c(=O)cc4C(F)(F)F)c3)cc2)C(C)(C)C)cc1	81.8894	85.2238	124.425	102.442	172.591	86.697
Nc1ncnc2c1ccn2[C@@H]1O[C@H]([C@H](O)c2ccccc2)[C@@H](O)[C@H]1O	22.7938	108.338	25.5953	72.0424	28.7794	179.519
COc1cc(N(C)c2ccnc3ccc(C(F)(F)F)cc23)cc(OC)c1OC	62.3452	117.147	95.9474	95.4836	76.7382	110.267
CN(C)CCOc1ccc(-c2nc(-c3ccncc3)c(-c3ccc4c(c3)CC/C4=N\O)[nH]2)cc1 [SB590885]	79.2379	96.48	183.636	84.6732	154.959	68.1541
CN(C)C(=O)/C(C#N)=C/c1ccc(-c2nc3cnc4[nH]ccc4c3n2C2CCCCC2)o1	57.9428	82.2998	107.956	74.8679	75.2682	130.215
CCOC(=O)c1c(/C(C#N)=C\N)c2ccc(Cl)c(Cl)c2n1C	122.99	97.4073	89.9628	62.6784	91.9928	87.4636
CN1CCN(c2cnc3c(C4CCN(C(=O)c5ccc(OC(F)(F)F)cc5N)CC4)ncnc3c2)CC1 [BAY-885]	128.922	132.533	91.6174	96.8328	78.4575	141.163
